Measured values published in ChEMBL document CHEMBL1201862, “PubChem BioAssay data set” (2004).
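In this assay, cells in 96-well plates receive the compound at five concentrations for 48 hours. Endpoints are linearly interpolated between the surrounding concentrations. GI50 marks 50% less growth.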 Calls of active or inactive are those of the source. Rule as the data show it: active = GI50 up to about 1.1 µM and inactive = higher.

Legend:
Assay in all cases: NCI tumour cell line growth inhibition, 48 h
[1] = test system: M19-MEL
[2] = test system: KM-20L2
[3] = test system: DLD-1
[4] = test system: SNB-78
[5] = test system: DMS-273
[6] = test system: LXFL 529
[7] = test system: HOP-18
[8] = test system: XF498
[9] = test system: RXF 631

Row | Structure (SMILES) | GI50 [1] | GI50 [2] | GI50 [3] | GI50 [4] | GI50 [5] | GI50 [6] | GI50 [7] | GI50 [8] | GI50 [9]
1 | COc1nc(=O)cc(N)n1C1OC(CO)C(O)C1O (stereo unspecified) | > 100 µM (inactive) | > 100 µM (inactive) | > 100 µM (inactive) | > 100 µM (inactive) | > 100 µM (inactive) | > 100 µM (inactive) |  |  | 
2 | c1ccc2c(c1)c1ccccc1c1n[se]nc21 |  | > 100 µM (inactive) | > 100 µM (inactive) | > 100 µM (inactive) | > 100 µM (inactive) | 21.8 µM (inactive) | < 0.01 µM (active) | 31.5 µM (inactive) | 89.7 µM (inactive)
3 | O=C(CSc1nc(-c2ccccc2)c(-c2ccccc2)[nH]1)N/N=C/c1ccc(O)cc1 | 19.4 µM (inactive) | 24.5 µM (inactive) | 36.7 µM (inactive) | 37.9 µM (inactive) | 18.3 µM (inactive) | 30.5 µM (inactive) | 12.2 µM (inactive) | 28.5 µM (inactive) | 
4 | O=S(=O)(/C=C/C(=C/c1ccccc1)S(=O)(=O)c1ccccc1)c1ccccc1 |  |  |  |  | 1.52 µM (inactive) | 1.7 µM (inactive) |  | 1.7 µM (inactive) | 1.07 µM (active)
5 | C[N+](C)(C)CC1CCCC/C1=N\OC(=O)c1ccccc1 (stereo unspecified) | > 100 µM (inactive) | > 100 µM (inactive) | > 100 µM (inactive) | > 100 µM (inactive) | > 100 µM (inactive) | > 100 µM (inactive) | > 100 µM (inactive) |  | > 100 µM (inactive)
6 | O=C(NC(c1ccccc1)C(O)C(=O)OCc1ccc2c(c1)C(=O)c1ccccc1C2=O)c1ccccc1 (stereo unspecified) | 53.6 µM (inactive) | > 51.2 µM (inactive) | 21.2 µM (inactive) | 56.6 µM (inactive) | 18.6 µM (inactive) | 44.7 µM (inactive) | 3.56 µM (inactive) | 16 µM (inactive) | 30.5 µM (inactive)
7 | C/C(CC(=O)Nc1cccc(C)c1C)=N\NC(N)=S | > 100 µM (inactive) | > 100 µM (inactive) | > 100 µM (inactive) | > 100 µM (inactive) | > 100 µM (inactive) | > 100 µM (inactive) | > 100 µM (inactive) | > 100 µM (inactive) | 91.2 µM (inactive)
8 | O=C1CCCc2ccc([N+](=O)[O-])c(O)c21 | > 100 µM (inactive) | > 100 µM (inactive) | > 100 µM (inactive) | > 100 µM (inactive) | > 100 µM (inactive) | > 100 µM (inactive) |  |  | 
9 | NS(=O)(=O)c1cc2c(cc1Cl)NC(/C(=N/NC(=O)c1ccncc1)C1C(=O)NC(=O)NC1=O)=NS2(=O)=O | > 100 µM (inactive) | > 100 µM (inactive) | > 100 µM (inactive) | > 100 µM (inactive) | > 100 µM (inactive) | > 100 µM (inactive) |  |  | > 100 µM (inactive)
10 | C#CCN(N=O)C(=O)NCCCCC(NC(=O)OCc1ccccc1)C(=O)OCc1ccccc1 (stereo unspecified) | 23.3 µM (inactive) | > 100 µM (inactive) | 29 µM (inactive) | 46.2 µM (inactive) | 84.3 µM (inactive) | 19.1 µM (inactive) | > 100 µM (inactive) | 29.9 µM (inactive) | 
11 | Cc1ccccc1NC(=O)C(=O)C(C#N)c1ccc(Cl)cc1 (stereo unspecified) |  | 33.6 µM (inactive) | 41.8 µM (inactive) | > 100 µM (inactive) | 33 µM (inactive) | 51.4 µM (inactive) | 47.8 µM (inactive) | 33.8 µM (inactive) | 34.7 µM (inactive)
12 | Cc1cc(NS(=O)(=O)c2ccc(Nc3c4ccccc4nc4c(C(=O)Nc5ccc(S(N)(=O)=O)cc5)cccc34)cc2)no1 | 25.1 µM (inactive) | > 100 µM (inactive) | > 100 µM (inactive) | 23.9 µM (inactive) | > 100 µM (inactive) | 21.1 µM (inactive) | > 100 µM (inactive) | 20.9 µM (inactive) | 
13 | COc1ccc(C=O)c(N(C)C(=O)C(C)(C)C)c1 | > 100 µM (inactive) | > 100 µM (inactive) |  | > 100 µM (inactive) | > 100 µM (inactive) |  | > 100 µM (inactive) | 17.1 µM (inactive) | > 100 µM (inactive)
14 | CNC(=O)OCc1nc(SSC(C)(C)C)n(C)c1COC(=O)NC | 3.32 µM (inactive) | 12.8 µM (inactive) | 1.43 µM (inactive) | 7.83 µM (inactive) | 5.97 µM (inactive) | 1.24 µM (inactive) | 5.18 µM (inactive) | 2.32 µM (inactive) | 1.73 µM (inactive)
15 | C=C(c1ccccc1N)[C@@]1(O)C[C@H](/C(=C\C)CO)C[C@@H]1NCc1ccccc1 | 23.6 µM (inactive) | 17.3 µM (inactive) |  | 25.2 µM (inactive) | 28.6 µM (inactive) |  | 20.4 µM (inactive) |  | 
16 | Sc1nnc(/C=C/c2ccc(Cl)c(Cl)c2)[nH]1 |  | > 100 µM (inactive) | > 100 µM (inactive) |  | > 100 µM (inactive) |  |  | 30.9 µM (inactive) | 
17 | NNC(=O)/C(=C/c1ccc(Cl)c(Cl)c1)NC(=O)c1ccccc1 | > 100 µM (inactive) | > 100 µM (inactive) | > 100 µM (inactive) | > 100 µM (inactive) |  | > 100 µM (inactive) |  | > 100 µM (inactive) | > 100 µM (inactive)
18 | CC(C)(C)C1CCC2c3c([nH]c4ccccc34)C3C(=O)N(c4ccc(Br)cc4)C(=O)C3C2C1 (stereo unspecified) | 16.8 µM (inactive) | 15.1 µM (inactive) | 41.4 µM (inactive) | 26.4 µM (inactive) | 17.1 µM (inactive) | 21.7 µM (inactive) | 52.4 µM (inactive) | 38.4 µM (inactive) | 
19 | CO[C@H]1C[C@](C)(O)Cc2cc3c(c(O)c21)C(=O)c1c(O)cc2c(c1C3=O)O[C@@H]1O[C@@]2(C)[C@H](O)[C@@H](N(C)C)[C@@H]1O | 1.11 µM (active) | 2.89 µM (inactive) | 2.81 µM (inactive) | 3.87 µM (inactive) | 0.215 µM (active) | 1.96 µM (inactive) | 0.859 µM (active) | 0.147 µM (active) | 0.902 µM (active)
20 | COC(=O)/C1=C/C2CC(/C=C(/c3ccccc3)C(=O)O1)C2 | 23.1 µM (inactive) |  | 22.8 µM (inactive) |  | 21.5 µM (inactive) |  | 27.5 µM (inactive) | 22 µM (inactive) | 
21 | Cc1noc2cccc(O)c12 | > 100 µM (inactive) | > 100 µM (inactive) | > 100 µM (inactive) | > 100 µM (inactive) | > 100 µM (inactive) | > 100 µM (inactive) | > 100 µM (inactive) | > 100 µM (inactive) | 
